Laboratory results published in paper PMC8704707 (Pharmaceuticals, 2021).
In brackets after ≈: the same amount, converted by molar mass. Several values for one entry are separate records, joined by “and”; a condition that tells them apart may be missing. Equal values may be shown once. Read-outs that look alike come from different tables or passages of the source.

Legend:
[1] = biological target: BuChE from equine serum (EqBuChE) (Equus caballus, UniProt P81908); test: biochemical; conditions: for IC50: mean ± SD, n = three independent experiments, BTCh 40 µM, read-out: IC50 BuChE
Sequence of BuChE from equine serum (EqBuChE) (P81908 whole entry): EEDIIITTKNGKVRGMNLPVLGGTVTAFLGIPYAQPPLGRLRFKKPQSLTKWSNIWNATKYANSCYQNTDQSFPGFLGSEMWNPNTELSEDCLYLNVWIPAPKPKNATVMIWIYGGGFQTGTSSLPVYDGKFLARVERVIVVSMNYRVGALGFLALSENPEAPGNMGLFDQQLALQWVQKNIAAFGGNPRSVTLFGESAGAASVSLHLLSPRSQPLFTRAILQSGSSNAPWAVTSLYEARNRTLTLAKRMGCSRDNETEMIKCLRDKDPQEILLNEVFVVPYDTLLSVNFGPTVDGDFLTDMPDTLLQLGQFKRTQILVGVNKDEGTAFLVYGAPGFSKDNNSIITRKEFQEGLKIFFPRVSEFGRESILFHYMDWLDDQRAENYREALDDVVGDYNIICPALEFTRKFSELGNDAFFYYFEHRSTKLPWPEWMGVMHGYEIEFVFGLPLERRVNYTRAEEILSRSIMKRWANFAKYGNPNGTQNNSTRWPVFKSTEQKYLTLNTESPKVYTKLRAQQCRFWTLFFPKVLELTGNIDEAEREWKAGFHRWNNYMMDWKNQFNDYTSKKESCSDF

HepG2 cells [2] = conditions: for IC50: read-out: IC50 cytotoxicity towards HepG2 cell line, CellTiter 96, 24 h incubation
Experimental: (§1) Cytotoxicity of the tested compounds was measured using the standard hepatic cell line HepG2. The used CellTiter 96® assay is based on the reduction of tetrazolium dye (MTS) in living cells to formazan, which is then determined colorimetrically.

[3] = biological target: AChE from electric eel (EeAChE) (Electrophorus electricus, UniProt O42275); test: biochemical; type: biochemical; conditions: for IC50: mean ± SD, n = three independent experiments, ATCh 40 µM, read-out: IC50 AChE
Sequence of AChE from electric eel (EeAChE) (O42275 24-633): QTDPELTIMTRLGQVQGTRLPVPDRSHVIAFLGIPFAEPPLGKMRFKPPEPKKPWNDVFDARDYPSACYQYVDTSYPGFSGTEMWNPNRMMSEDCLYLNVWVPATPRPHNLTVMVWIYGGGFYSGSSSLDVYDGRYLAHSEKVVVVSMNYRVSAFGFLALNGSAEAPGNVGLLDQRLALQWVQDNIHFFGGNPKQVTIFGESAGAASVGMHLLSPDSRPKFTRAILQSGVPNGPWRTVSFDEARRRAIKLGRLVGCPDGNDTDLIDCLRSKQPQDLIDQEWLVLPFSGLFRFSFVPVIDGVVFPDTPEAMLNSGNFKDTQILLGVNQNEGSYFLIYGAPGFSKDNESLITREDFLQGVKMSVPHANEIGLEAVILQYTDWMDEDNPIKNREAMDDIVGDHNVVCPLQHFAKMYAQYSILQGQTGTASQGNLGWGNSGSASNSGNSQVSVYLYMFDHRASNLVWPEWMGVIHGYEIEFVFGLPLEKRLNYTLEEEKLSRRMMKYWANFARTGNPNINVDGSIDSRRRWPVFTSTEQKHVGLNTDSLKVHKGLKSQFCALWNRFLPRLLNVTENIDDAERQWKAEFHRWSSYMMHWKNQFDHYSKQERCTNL

[4] = test system: four Gram-positive and four Gram-negative bacterial strains; test: Antibacterial microdilution broth method, whole panel; type: cell-based
[5] = test system: eight human pathogenic fungi; test: Antifungal microdilution broth method, whole panel; type: cell-based; conditions: not reported in Table 2, read-out: MIC, all fungal strains tested
in vitro [6] = conditions: human, HepG2 cells
HepG2 cells [7] = test: LDH release assay (CytoTox 96), membrane integrity; conditions: read-out: EC50 LDH release assay; HepG2, 24 h incubation
in vitro [8] = conditions: human, HepG2 cells; remark: listed apart in the source
Experimental: as §1

[9] = test system: Staphylococcus aureus ATCC 29213; test: Antibacterial microdilution broth method (EUCAST); type: cell-based
[10] = test system: Escherichia coli ATCC 25922; test: Antibacterial microdilution broth method (EUCAST); type: cell-based
[11] = test system: Klebsiella pneumoniae ATCC 10031
[12] = test system: Pseudomonas aeruginosa ATCC 27853; test: Antibacterial microdilution broth method (EUCAST); type: cell-based
[13] = test system: methicillin-resistant Staphylococcus aureus ATCC 43300; test: Antibacterial microdilution broth method (EUCAST); type: cell-based; conditions: ATCC 43300 / MRSA
[14] = test system: Staphylococcus epidermidis ATCC 12228; test: Antibacterial microdilution broth method (EUCAST); type: cell-based
[15] = test system: Acinetobacter baumannii ATCC 19606; test: Antibacterial microdilution broth method (EUCAST); type: cell-based
[16] = test system: Enterococcus faecalis ATCC 29212; test: Antibacterial microdilution broth method (EUCAST); type: cell-based
[17] = read-out: MIC, all bacterial strains tested

SMILES | IC50 [1] | Selectivity AChE/BuChE [3] | IC50 [3] [µM] | MIC [4, 17] [µM] | MIC [5] [µM] | EC50 at 24 h (in vitro [6]) [µM] | EC50 (HepG2 cells [7]) [µM] | IC50 at 24 h (in vitro [8]) [µM] | IC50 (HepG2 cells [2]) [µM] | further results
NC(N)=NN=C1C(=O)Nc2ccccc21 [Compound 1p, 2-(2-Oxoindolin-3-ylidene)hydrazine-1-carboximidamide] | < 20 µM and 17.5 µM | 1.03 | 17.9 ± 0.9 | ≥ 500 | ≥ 500 | > 100 | 130 | > 500 | – | Type of inhibition of BuChE [1]: mixed inhibition; Cytotoxicity in HepG2 in words (HepG2 cells [2]; range of tested concentrations up to 500 µM): no significant cytotoxicity; Type of inhibition of AChE [3]: mixed inhibition
[H]/N=C(\N)NN=Cc1cc(I)cc(I)c1O [Compound 1m, (E)-2-(2-Hydroxy-3,5-diiodobenzylidene)hydrazine-1-carboximidamide] | < 20 µM and 3.57 µM | – | 29 ± 2.49 | ≥ 500 | ≥ 500 | > 20 | 21.3 | > 29 | 56.5 | –
[H]/N=C(\N)NN=Cc1cc(I)cc(I)c1 [Compound 2c, (E)-2-(3,5-Diiodobenzylidene)hydrazine-1-carboximidamide] | 85.5 ± 1.46 µM | 0.34 | 29 ± 1.19 | – | ≥ 500 | < 6 | 5.44 | < 11 | 9.84 | MIC ([9]; ATCC29213, 24 h, read-out: MIC SA 24 h): 15.6 µM (≈ 6.47 µg/mL); MIC ([9]; ATCC29213, 48 h, read-out: MIC SA 48 h): 15.6 µM (≈ 6.47 µg/mL); MIC ([10]; ATCC25922, 24 h, read-out: MIC EC 24 h): 62.5 µM (≈ 25.9 µg/mL); MIC ([10]; ATCC25922, 48 h, read-out: MIC EC 48 h): 62.5 µM (≈ 25.9 µg/mL); MIC KP 24 h ([11]; 24 h incubation): 62.5 µM (≈ 25.9 µg/mL); MIC KP 48 h ([11]; 48 h incubation): 62.5 µM (≈ 25.9 µg/mL); MIC ([12]; ATCC27853, 24 h, read-out: MIC PA 24 h): 250 µM (≈ 103 µg/mL); MIC ([12]; ATCC27853, 48 h, read-out: MIC PA 48 h): 250 µM (≈ 103 µg/mL); MIC ([13]; 24 h, read-out: MIC MRSA 24 h): 15.6 µM (≈ 6.47 µg/mL); MIC ([13]; 48 h, read-out: MIC MRSA 48 h): 15.6 µM (≈ 6.47 µg/mL); MIC ([14]; ATCC12228, 24 h, read-out: MIC SE 24 h): 7.8 µM (≈ 3.23 µg/mL); MIC ([14]; ATCC12228, 48 h, read-out: MIC SE 48 h): 7.8 µM (≈ 3.23 µg/mL); MIC ([4]; read-out: MIC against staphylococci): 31.2 to 125 µM (≈ 12.9 to 51.7 µg/mL); MIC ([15]; ATCC19606, 24 h, read-out: MIC ACI 24 h): 250 µM (≈ 103 µg/mL); MIC ([15]; ATCC19606, 48 h, read-out: MIC ACI 48 h): 250 µM (≈ 103 µg/mL); MIC ([16]; ATCC29212, 24 h, read-out: MIC EF 24 h): 31.2 µM (≈ 12.9 µg/mL); MIC ([16]; ATCC29212, 48 h, read-out: MIC EF 48 h): 31.2 µM (≈ 12.9 µg/mL)
